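How tested: cells in 96-well plates exposed to compound for 48 hours at five concentrations. TGI: total growth inhibition.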 Where a SMILES comes first, the peptide text is derived from it. Bridges are numbered along the chain shown (N, C = ends). The star is where a group is joined. Cbz = O=C(OCc1ccccc1)*
Experiments:
Assay in all cases: NCI anticancer screen, dose series, 48 h
[1] = test system: HCC-2998 colon
[2] = test system: MDA-MB-231 breast
[3] = test system: OVCAR-3 ovarian
[4] = test system: OVCAR-5 ovarian
[5] = test system: SF-295 CNS
[6] = test system: SK-MEL-2 melanoma
[7] = test system: SK-MEL-28 melanoma
[8] = test system: SK-MEL-5 melanoma
[9] = test system: SNB-19 CNS
[10] = test system: NCI-H522 lung

SMILES	TGI [1]	TGI [2]	TGI [3]	TGI [4]	TGI [5]	TGI [6]	TGI [7]	TGI [8]	TGI [9]	TGI [10]
CC(C)(C)OC(=O)NCC(=O)NC1C/C(=N\O)c2sccc21 (configuration not stated)	> 100 µM	> 100 µM	> 100 µM	> 100 µM	> 100 µM	> 100 µM	> 100 µM	> 100 µM	> 100 µM	
O=c1[nH]cnc2sc(=S)c3c(c12)CCC3		> 100 µM	53.2 µM	> 100 µM	> 100 µM	> 100 µM	> 100 µM	42.1 µM	> 100 µM	41.8 µM
CSc1ncc2c(n1)-c1ccccc1OC2NC(C)(C)C (configuration not stated)	87 µM	> 100 µM	> 100 µM	> 100 µM	> 100 µM		> 100 µM		> 100 µM	74.5 µM
COC(=O)C1=C(C)N(NC(=O)c2ccccc2)C2(O)CCCC(=O)C12C (configuration not stated)			> 100 µM	> 100 µM	> 100 µM	> 100 µM	> 100 µM	> 100 µM	> 100 µM	> 100 µM
Cc1ccnc(NC(=S)Nc2cccc(Cl)c2)c1			> 100 µM	> 100 µM	> 100 µM	> 100 µM	> 100 µM	> 100 µM	> 100 µM	9.85 µM
O=c1[nH]c2cc3cccnc3c(Cl)c2nc1CBr		34.4 µM	35.5 µM	35.9 µM	54.1 µM			35.6 µM	19.7 µM	28.5 µM
CC1=C[C@@H](C)C[C@]2(C)CC[C@H](O2)[C@]23CC[C@](C)(C[C@H](O2)[C@@H]2O[C@@](C)(CC2=O)[C@@H](O)[C@H]2CC[C@@]4(CCC[C@@H](O4)[C@H](C)C(=O)O[C@H]4C[C@H]([C@]5(O)OCC[C@H](C)[C@@H]5O)O[C@H]4C=C1)O2)O3	> 10 µM	0.238 µM	0.02 µM	> 10 µM		> 10 µM	0.0233 µM	0.0212 µM		> 10 µM
COc1ccc2c(c1OC)C(=O)O[C@@H]2[C@H]1c2cc3c(cc2CCN1C)OCO3	> 100 µM	> 100 µM	> 100 µM	> 100 µM	> 100 µM	> 100 µM		> 100 µM	> 100 µM	> 100 µM
Oc1nc(N/N=C/c2ccccc2)[nH]c1/C=C1\C=Nc2ccccc21		> 100 µM	> 100 µM	> 100 µM	> 100 µM	> 100 µM	> 100 µM	> 100 µM	> 100 µM	> 100 µM
CCOP(=O)(OCC)C1(O)CC(n2cc(C)c(=O)[nH]c2=O)OC1CO (configuration not stated)	> 100 µM		> 100 µM	> 100 µM	> 100 µM	> 100 µM	> 100 µM	> 100 µM	> 100 µM	> 100 µM
N#CC1(c2ccccc2)CCN(C2(c3ccccc3)CCCCC2)CC1	> 100 µM	> 100 µM	> 100 µM	> 100 µM	> 100 µM	> 100 µM	> 100 µM	> 100 µM	> 100 µM	
O=C1c2ccccc2-c2nc(-c3ccccc3)cc3c2c1nc1ccccc13	26.7 µM	59.3 µM	2.43 µM	61.4 µM	27.6 µM	51.4 µM	22.9 µM	13.3 µM	52.9 µM	
COc1cc(/C=C2\Cc3cc(OC)c(OC)cc3C2=O)cc(OC)c1		> 100 µM	> 100 µM	> 100 µM	41.7 µM	> 100 µM	> 100 µM	> 100 µM	> 100 µM	> 100 µM
CCC(=O)NC(OCC1(CC)COC1)(C(F)(F)F)C(F)(F)F	> 100 µM	> 100 µM	> 100 µM	> 100 µM		> 100 µM	> 100 µM		> 100 µM	> 100 µM
CC(=O)Nc1ccc(C(=O)NN2C(=O)C(Cl)C2c2ccc(O)cc2)cc1 (configuration not stated)			> 100 µM	> 100 µM	> 100 µM	> 100 µM	> 100 µM	> 100 µM	> 100 µM	> 100 µM
COC(=O)C1CCCCNC(=O)CCC(NC(=O)OCc2ccccc2)C(=O)N1 (stereo not drawn) (Cbz-Glu-Lys-OMe; lactam 1-2; configuration not given here)		> 100 µM	> 100 µM	> 100 µM	> 100 µM	> 100 µM	> 100 µM	> 100 µM	> 100 µM	> 100 µM
CN(/N=N/c1nc[nH]c1C(N)=O)C1CCCCC1	> 100 µM		> 100 µM	> 100 µM	> 100 µM	> 100 µM	> 100 µM	> 100 µM	> 100 µM	> 100 µM
CCNc1ncnc2c1nnn2CC	> 100 µM	> 100 µM	> 100 µM		> 100 µM	> 100 µM	> 100 µM	> 100 µM	> 100 µM	> 100 µM
O=S(=O)(O)c1cc(O)c2c(O)c(N=Nc3cccc4ccccc34)c(S(=O)(=O)O)cc2c1		> 100 µM	> 100 µM	> 100 µM	> 100 µM	> 100 µM	> 100 µM	> 100 µM	> 100 µM	> 100 µM
C#CCSc1nc(N)c2ncn(C3OC(COP(=O)(O)O)C(O)C3O)c2n1 (configuration not stated)	> 239 µM		> 239 µM	> 239 µM	> 239 µM	> 239 µM	> 239 µM	> 239 µM	> 239 µM	> 239 µM
C/C(=C\Cc1cc(O)ccc1O)CCc1c(C)c(O)c(O)c(C=O)c1C	> 100 µM		43.2 µM		91.5 µM	54.4 µM	48.5 µM	30.2 µM	> 100 µM	21.4 µM
COc1cc2c(cc1C)NC(=O)/C2=C\c1ccncc1	30 µM		10.3 µM	29.1 µM	19.1 µM	10.1 µM	84.3 µM	8.47 µM	21.6 µM	9.53 µM
COc1cc(/C=N\NC(=O)C[N+](C)(C)C)cc(OC)c1OC	> 10 µM	> 10 µM	> 10 µM	> 10 µM	> 10 µM		> 10 µM	> 10 µM	> 10 µM	> 10 µM
CC(=O)O[C@H]1CN(S(=O)(=O)c2ccc(C)cc2)C[C@@H]1C1CCCCC1	> 100 µM	82.7 µM	43.5 µM	> 100 µM	32 µM	37.7 µM	59 µM	31.9 µM	> 100 µM	
